The numbers were not newly measured in patent US20170239455A1 (priority 2014, published 2017), which cites them from elsewhere.

The series relates to virus Ebola.

Take `II` [molecular iodine]: the “effectiveness against the virus” value is “effective”.
